# From US8124637B2, “Anthra [1, 2-d]imidazole-6,11-dione derivatives, preparation method and application thereof” (National Defense Medical Center, priority 2010, dated 2012)
# Tests used:
# [1] = MTT assay (relative cell survival), H1299; conditions: human, H1299 non-small cell lung cancer cells (PhTERT-SEAP), Relative MTT viability (%)
# [2] = test system: 60 kinds of different human cancer cells; experiment: NCI 60-cell drug screen, one dose, whole panel; type: cell-based; conditions: mean over the tested cell lines, 1.00E−5 Molar
# Description: In brief, cellular protein levels were determined after 48 hours of drug exposure by sulforhodamine B colorimetry.
# The screening system in United State National Cancer Institute (NCI) consists of 60 kinds of different human cancer cells, which can be used to assay the growth-inhibiting ability or cell toxicity of a compound against various cancer and tumor at a certain concentration. The NCI had selected 6 compounds synthesized above, and performed cell toxicity assay against 60 kinds of cancer cell strains (Table 2) (DTP Human Tumor Cell Line Screen), in which each compound was assayed at a certain concentration to observe its inhibition ability or cell toxicity against various kinds of cancer and tumor.
# UACC-257 = experiment: NCI 60-cell drug screen, one dose; type: cell-based, human; conditions: Melanoma UACC-257, 1.00E−5 Molar
# SF-539 = experiment: NCI 60-cell drug screen, one dose; type: cell-based, human; conditions: CNS Cancer SF-539, 1.00E−5 Molar
# Procedure, shortened: (§1)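 Compounds were tested at a single fixed concentration against the human cancer cell panel. After 48 hours of drug exposure, cellular protein was measured by sulforhodamine B colorimetry to gauge growth inhibition or cytotoxicity.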
# SK-OV-3 = experiment: NCI 60-cell drug screen, one dose; type: cell-based, human; conditions: Ovarian Cancer SK-OV-3, 1.00E−5 Molar
# Procedure, shortened: as §1
# PC-3 = experiment: NCI 60-cell drug screen, one dose; type: cell-based, human; conditions: Prostate Cancer PC-3, 1.00E−5 Molar
# Procedure, shortened: as §1
# M14 = experiment: NCI 60-cell drug screen, one dose; type: cell-based, human; conditions: Melanoma M14, 1.00E−5 Molar
# Procedure, shortened: as §1
# MDA-MB-231/ATCC = experiment: NCI 60-cell drug screen, one dose; type: cell-based, human; conditions: Breast Cancer MDA-MB-231/ATCC, 1.00E−5 Molar
# Procedure, shortened: as §1
# COLO 205 = experiment: NCI 60-cell drug screen, one dose; type: cell-based, human; conditions: Colon Cancer COLO 205, 1.00E−5 Molar
# Procedure, shortened: as §1
# HCC-2998 = experiment: NCI 60-cell drug screen, one dose; type: cell-based, human; conditions: Colon Cancer HCC-2998, 1.00E−5 Molar
# Procedure, shortened: as §1
# LOX IMVI = experiment: NCI 60-cell drug screen, one dose; type: cell-based, human; conditions: Melanoma LOX IMVI, 1.00E−5 Molar
# Procedure, shortened: as §1
# MOLT-4 = experiment: NCI 60-cell drug screen, one dose; type: cell-based, human; conditions: Leukemia MOLT-4, 1.00E−5 Molar
# Procedure, shortened: as §1
# SNB-19 = experiment: NCI 60-cell drug screen, one dose; type: cell-based, human; conditions: CNS Cancer SNB-19, 1.00E−5 Molar
# Procedure, shortened: as §1
# NCI-H322M = experiment: NCI 60-cell drug screen, one dose; type: cell-based, human; conditions: Non-Small Cell Lung Cancer NCI-H322M, 1.00E−5 Molar
# Procedure, shortened: as §1
# NCI-H226 = experiment: NCI 60-cell drug screen, one dose; type: cell-based, human; conditions: Non-Small Cell Lung Cancer NCI-H226, 1.00E−5 Molar
# Procedure, shortened: as §1
# SK-MEL-2 = experiment: NCI 60-cell drug screen, one dose; type: cell-based, human; conditions: Melanoma SK-MEL-2, 1.00E−5 Molar
# Procedure, shortened: as §1
# EKVX = experiment: NCI 60-cell drug screen, one dose; type: cell-based, human; conditions: Non-Small Cell Lung Cancer EKVX, 1.00E−5 Molar
# Procedure, shortened: as §1
# SK-MEL-28 = experiment: NCI 60-cell drug screen, one dose; type: cell-based, human; conditions: Melanoma SK-MEL-28, 1.00E−5 Molar
# Procedure, shortened: as §1
# OVCAR-8 = experiment: NCI 60-cell drug screen, one dose; type: cell-based, human; conditions: Ovarian Cancer OVCAR-8, 1.00E−5 Molar
# Procedure, shortened: as §1
# NCI/ADR-RES = experiment: NCI 60-cell drug screen, one dose; type: cell-based, human; conditions: Ovarian Cancer NCI/ADR-RES, 1.00E−5 Molar
# Procedure, shortened: as §1
# MCF7 = experiment: NCI 60-cell drug screen, one dose; type: cell-based, human; conditions: Breast Cancer MCF7, 1.00E−5 Molar
# Procedure, shortened: as §1
# HL-60(TB) = experiment: NCI 60-cell drug screen, one dose; type: cell-based, human; conditions: Leukemia HL-60(TB), 1.00E−5 Molar
# A549/ATCC = experiment: NCI 60-cell drug screen, one dose; type: cell-based, human; conditions: Non-Small Cell Lung Cancer A549/ATCC, 1.00E−5 Molar
# Procedure, shortened: as §1
# MDA-MB-435 = experiment: NCI 60-cell drug screen, one dose; type: cell-based, human; conditions: Melanoma MDA-MB-435, 1.00E−5 Molar
# Procedure, shortened: as §1
# KM12 = experiment: NCI 60-cell drug screen, one dose; type: cell-based, human; conditions: Colon Cancer KM12, 1.00E−5 Molar
# Procedure, shortened: as §1
# SK-MEL-5 = experiment: NCI 60-cell drug screen, one dose; type: cell-based, human; conditions: Melanoma SK-MEL-5, 1.00E−5 Molar
# Procedure, shortened: as §1
# SF-295 = experiment: NCI 60-cell drug screen, one dose; type: cell-based, human; conditions: CNS Cancer SF-295, 1.00E−5 Molar
# Procedure, shortened: as §1
# BT-549 = experiment: NCI 60-cell drug screen, one dose; type: cell-based, human; conditions: Breast Cancer BT-549, 1.00E−5 Molar
# Procedure, shortened: as §1
# HCT-116 = experiment: NCI 60-cell drug screen, one dose; type: cell-based, human; conditions: Colon Cancer HCT-116, 1.00E−5 Molar
# Procedure, shortened: as §1
smiles,measurement,setting,value
"O=C1c2ccccc2C(=O)c2c1ccc1nc(CN3CCN(c4ccccn4)CC3)[nH]c21 [CL28, 2-((4-(pyridin-2-yl)piperazin-1-yl)methyl)-1H-anthra[1,2-d]imidazole-6,11-dione]","viability at 72 h, 1 µM",[1]; 1 μM,90.5 ± 4.34%
same,"viability at 72 h, 10 µM",[1]; 10 μM,69.5%
same,"viability at 72 h, 100 µM",[1]; 100 μM,19.8%
same,"Growth Percent, Mean",[2],87.65%
same,Growth Percent,UACC-257,88.91%
same,Growth Percent,SF-539,104.29%
same,Growth Percent,SK-OV-3,93.16%
same,Growth Percent,PC-3,89.10%
same,Growth Percent,M14,103.99%
same,Growth Percent,MDA-MB-231/ATCC,72.65%
same,Growth Percent,COLO 205,110.79%
same,Growth Percent,HCC-2998,92.28%
same,Growth Percent,LOX IMVI,82.25%
same,Growth Percent,MOLT-4,61.76%
same,Growth Percent,SNB-19,81.00%
same,Growth Percent,NCI-H322M,93.77%
same,Growth Percent,NCI-H226,91.88%
same,Growth Percent,SK-MEL-2,98.34%
same,Growth Percent,EKVX,63.00%
same,Growth Percent,SK-MEL-28,114.23%
same,Growth Percent,OVCAR-8,88.07%
same,Growth Percent,NCI/ADR-RES,81.16%
same,Growth Percent,MCF7,81.99%
same,Growth Percent,HL-60(TB),97.31%
same,Growth Percent,A549/ATCC,91.07%
same,Growth Percent,MDA-MB-435,94.85%
same,Growth Percent,KM12,95.03%
same,Growth Percent,SK-MEL-5,83.56%
same,Growth Percent,SF-295,92.70%
same,Growth Percent,BT-549,102.42%
same,Growth Percent,HCT-116,84.30%
